Test results taken from patent publication EP0603240B1, “SAFENING HERBICIDAL PYRAZOLYLSULFONYLUREAS” (priority 1991, dated 1993).

Key:
Format in all cases: in vivo
[1] = tested on: velvetleaf (Abutilon theophrasti); assay: Example 7, Procedure II: Herbicide No. 1 + metolachlor (No. 12) with antidotes
In short: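 Herbicide and antidote in acetone were mixed into silt loam soil used to cover seeded beds, followed by 0.6 cm overhead irrigation, then sub-irrigation in the greenhouse. Percent injury was scored against herbicide-alone and untreated controls, averaged over duplicates. Herbicide No. 1 was combined with metolachlor.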

corn = assay: Example 9, Procedure II: Herbicide No. 1 + pretilachlor (No. 13) with antidotes
In short: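 Corn seeded in silt loam; seed bed covered with soil into which herbicide and antidote (in acetone) were mixed, alongside untreated and herbicide-only controls. Initial overhead irrigation equal to 0.6 cm rainfall, then greenhouse sub-irrigation. Response scored as percent injury; safening as injury difference without vs with antidote.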

[2] = tested on: barnyardgrass (Echinochloa crusgalli); assay: Example 21, Procedure II: Herbicide No. 1 + SUTAN PLUS (butylate + antidote) with antidotes
Protocol: (§1) Containers were filled and compacted with a fumigated silt loam top soil to a depth of about 1.3 cm from the top of the container. A first container was designated as an untreated control, a second container was designated as a herbicide control, and a third container was designated as a herbicide + antidote test container. Each of the containers was seeded with a crop species. A measured amount of herbicide dispersed or dissolved in acetone was applied to a measured quantity of soil. To this same quantity of soil treated with herbicide, there was added a measured amount of antidote dispersed or dissolved in acetone. The quantity of soil treated with the herbicide and antidote was thoroughly mixed to incorporate the herbicide and antidote in the soil uniformly. The seed bed in the third container of soil was covered with the soil treated with the herbicide and antidote and the container was leveled. For each test series, the seed beds of the first and second containers were likewise covered by soil layers. the cover layer of the first container was not treated with herbicide or antidote.
(§2) The containers were then placed on a bench in a greenhouse and sub-irrigated as required for the duration of the test. […] Plant response is measured in terms of percent injury. Antidote efficacy is indicated as the difference in plant injury by the herbicide(s) without the antidote and with the antidote.
(§3) This procedure is the same as Procedure I, but modified in the manner that after incorporation of the chemicals (herbicide and antidote) the containers with the covered seedbed were treated with an initial overhead irrigation equivalent to 0.6 cm rainfall, then subsequently sub-irrigated as required on greenhouse benches.
(§4) In the series of greenhouse tests described below, for routine screening purposes the herbicide/antidote compositions were tested in crop/weed combinations involving corn as the crop and either or both of the weeds barnyardgrass (Echinochloa crusgalli), a monocotyledonous weed, and velvetleaf (Abutilon theophrasti), a dicotyledonous weed. In the tables below, these weeds are indicated by the symbols "BYG" and "VL", respectively.
(§5) In this example, tests were conducted as in the preceding Examples 18-20, except here the co-herbicidal component was SUTAN® PLUS, a commercial product comprising as the active herbicidal ingredient the compound butylate (Herbicide No. 10) and an antidote […] (Antidote No. 1). Again, the antidotal compounds herein were Nos. 1, 2, 7, 13 and 15. Procedure II was used.

[3] = tested on: velvetleaf (Abutilon theophrasti); assay: as above
Protocol: as §1, §2, §3, §4, §5

[4] = Herbicide No.1 0.14 + No.12 3.36 kg/ha + antidote 2.24 kg/ha
[5] = Herbicide No.1 0.14 + No.12 3.36 kg/ha + antidote 8.96 kg/ha
[6] = Herbicide No.1 0.56 + No.12 3.36 kg/ha + antidote 2.24 kg/ha
[7] = Herbicide No.1 0.56 + No.12 3.36 kg/ha + antidote 8.96 kg/ha
[8] = Herbicide No.1 0.14 kg/ha + Herbicide No.13 2.24 kg/ha, antidote rate 2.24 kg/ha
[9] = Herbicide No.1 0.14 kg/ha + Herbicide No.13 2.24 kg/ha, antidote rate 8.96 kg/ha
[10] = Herbicide No.1 0.56 kg/ha + Herbicide No.13 2.24 kg/ha, antidote rate 2.24 kg/ha
[11] = Herbicide No.1 0.56 kg/ha + Herbicide No.13 2.24 kg/ha, antidote rate 8.96 kg/ha
[12] = Herbicide No.1 0.56 kg/ha + SUTAN + 8.96 kg/ha, antidote 2.24 kg/ha
[13] = Herbicide No.1 0.56 kg/ha + SUTAN + 8.96 kg/ha, antidote 8.96 kg/ha
[14] = Herbicide No.1 1.12 kg/ha + SUTAN + 8.96 kg/ha, antidote 2.24 kg/ha
[15] = Herbicide No.1 1.12 kg/ha + SUTAN + 8.96 kg/ha, antidote 8.96 kg/ha

Structure (SMILES) | % Injury VL [1, 4] [%] | % Injury VL [1, 5] [%] | % Injury VL [1, 6] [%] | % Injury VL [1, 7] [%] | % Injury Corn (corn; [8]) [%] | % Injury Corn (corn; [9]) [%] | % Injury Corn (corn; [10]) [%] | % Injury Corn (corn; [11]) [%] | % Injury BYG [2, 12] [%] | % Injury BYG [2, 13] [%] | % Injury BYG [2, 14] [%] | % Injury BYG [2, 15] [%] | % Injury VL [3, 12] [%] | % Injury VL [3, 13] [%] | % Injury VL [3, 14] [%] | % Injury VL [3, 15] [%]
C=CCN(CC=C)C(=O)C(Cl)Cl [compound 1] | 70 | 75 | 85 | 80 | 0 | 0 | 5 | 10 | 0 | 25 | 10 | 35 | 40 | 65 | 65 | 60
O=C(C(Cl)Cl)N1CCOC12CCCCC2 [compound 7] | 70 | 65 | 85 | 85 | 10 | 0 | 30 | 25 | 25 | 10 | 40 | 10 | 45 | 65 | 65 | 45
CC1(C(Cl)Cl)OCCO1 [compound 13] | 75 | 80 | 85 | 85 | 10 | 0 | 25 | 20 | 40 | 50 | 70 | 70 | 55 | 40 | 70 | 70
